Measurements published in patent US20120016009A1, “Optimized Methods For Delivery Of DSRNA Targeting The PCSK9 Gene” (priority 2008, published 2012).
pIC50: −log10 of the molar value. In the oligonucleotide strings, read from the 5' end, every base follows the letter of its sugar. An asterisk marks phosphorothioate; unmarked linkages are phosphodiester. Other units and linkages are bracketed, terminal groups are in braces. A string of capitals states the bases alone. d = 2'-deoxy (DNA); r = 2'-OH (RNA)

System: PCSK9 mRNA
Test: PCSK9 siRNA screening in HepG2 cells (lipofectamine 2000 transfection, PCSK9 mRNA by Quantigene, normalized to GAP-DH)
Assay type: cell-based, human
Conditions: for Mean percent remaining mRNA transcript at siRNA concentration/in cell type 3 nM/HepG2: 3 nM siRNA; for Mean percent remaining mRNA transcript at siRNA concentration/in cell type 30 nM/HepG2: 30 nM siRNA; for Mean percent remaining mRNA transcript at siRNA concentration/in cell type 100 nM/HepG2: 100 nM siRNA
Experimental: HuH-7 cells were obtained from JCRB Cell Bank (Japanese Collection of Research Bioresources) (Shinjuku, Japan, cat. No.: JCRB0403) Cells were cultured in Dulbecco's MEM (Biochrom AG, Berlin, Germany, cat. No. F0435) supplemented to contain 10% fetal calf serum (FCS) (Biochrom AG, Berlin, Germany, cat. No. S0115), Penicillin 100 U/ml, Streptomycin 100 μg/ml (Biochrom AG, Berlin, Germany, cat. No. A2213) and 2 mM L-Glutamin (Biochrom AG, Berlin, Germany, cat. No K0282) at 37° C. in an atmosphere with 5% CO2 in a humidified incubator (Heraeus HERAcell, Kendro Laboratory Products, Langenselbold, Germany) HepG2 and HeLa cells were obtained from American Type Culture Collection (Rockville, Md., cat. No. HB-8065) and cultured in MEM (Gibco Invitrogen, Karlsruhe, Germany, cat. No. 21090-022) supplemented to contain 10% fetal calf serum (FCS) (Biochrom AG, Berlin, Germany, cat. No. S0115), Penicillin 100 U/ml, Streptomycin 100 μg/ml (Biochrom AG, Berlin, Germany, cat. No. A2213), 1× Non Essential Amino Acids (Biochrom AG, Berlin, Germany, cat. No. K-0293), and 1 mM Sodium Pyruvate (Biochrom AG, Berlin, Germany, cat. No. L-0473) at 37° C. in an atmosphere with 5% CO2 in a humidified incubator (Heraeus HERAcell, Kendro Laboratory Products, Langenselbold, Germany).
For transfection with siRNA, HuH7, HepG2, or HeLa cells were seeded at a density of 2.0×10^4 cells/well in 96-well plates and transfected directly. Transfection of siRNA (30 nM for single dose screen) was carried out with lipofectamine 2000 (Invitrogen GmbH, Karlsruhe, Germany, cat. No. 11668-019) as described by the manufacturer.
24 hours after transfection HuH7 and HepG2 cells were lysed and PCSK9 mRNA levels were quantified with the Quantigene Explore Kit (Genosprectra, Dumbarton Circle Fremont, USA, cat. No. QG-000-02) according to the protocol. PCSK9 mRNA levels were normalized to GAP-DH mRNA. For each siRNA eight individual datapoints were collected. siRNA duplexes unrelated to PCSK9 gene were used as control. The activity of a given PCSK9 specific siRNA duplex was expressed as percent PCSK9 mRNA concentration in treated cells relative to PCSK9 mRNA concentration in cells treated with the control siRNA duplex.
Tables 1b and 2b (and FIG. 6A) summarize the results and provide examples of in vitro screens in different cell lines at different doses. Silencing of PCSK9 transcript was expressed as percentage of remaining transcript at a given dose.
Very active sequences are those that have less than 60% of transcript remaining after treatment with a dose less than or equal to 100 nM. Active sequences are those that have less than 90% transcript remaining after treatment with a high dose (100 nM).

AD-9315: PCSK9 siRNA (sense rGrCrGrGrCrArCrCrCrUrCrArUrArGrGrCrCrUdT*dT; antisense rArGrGrCrCrUrArUrGrArGrGrGrUrGrCrCrGrCdT*dT)
pIC50: 9.01 | Mean percent remaining mRNA transcript at siRNA concentration/in cell type 3 nM/HepG2: 32% | Mean percent remaining mRNA transcript at siRNA concentration/in cell type 30 nM/HepG2: 15%

AD-9323: PCSK9 siRNA (sense rGrGrCrCrUrGrGrArGrUrUrUrArUrUrCrGrGrAdT*dT; antisense rUrCrCrGrArArUrArArArCrUrCrCrArGrGrCrCdT*dT)
Mean percent remaining mRNA transcript at siRNA concentration/in cell type 3 nM/HepG2: 33% | Mean percent remaining mRNA transcript at siRNA concentration/in cell type 30 nM/HepG2: 14%

AD-9324: PCSK9 siRNA (sense rGrCrCrArUrCrUrGrCrUrGrCrCrGrGrArGrCrCdT*dT; antisense rGrGrCrUrCrCrGrGrCrArGrCrArGrArUrGrGrCdT*dT)
Mean percent remaining mRNA transcript at siRNA concentration/in cell type 3 nM/HepG2: 67% | Mean percent remaining mRNA transcript at siRNA concentration/in cell type 30 nM/HepG2: 59%

AD-9326: PCSK9 siRNA (sense rGrCrArCrCrCrUrCrArUrArGrGrCrCrUrGrGrAdT*dT; antisense rUrCrCrArGrGrCrCrUrArUrGrArGrGrGrUrGrCdT*dT)
Mean percent remaining mRNA transcript at siRNA concentration/in cell type 3 nM/HepG2: 51% | Mean percent remaining mRNA transcript at siRNA concentration/in cell type 30 nM/HepG2: 35%

AD-9514: PCSK9 siRNA (sense rGrUrArCrCrGrGrGrCrGrGrArUrGrArArUrArCdT*dT; antisense rGrUrArUrUrCrArUrCrCrGrCrCrCrGrGrUrArCdT*dT)
Mean percent remaining mRNA transcript at siRNA concentration/in cell type 30 nM/HepG2: 57%

AD-9515: PCSK9 siRNA (sense rGrGrUrArCrCrGrGrGrCrGrGrArUrGrArArUrAdT*dT; antisense rUrArUrUrCrArUrCrCrGrCrCrCrGrGrUrArCrCdT*dT)
Mean percent remaining mRNA transcript at siRNA concentration/in cell type 30 nM/HepG2: 49%

AD-9516: PCSK9 siRNA (sense rUrGrUrArUrCrUrCrCrUrArGrArCrArCrCrArGdT*dT; antisense rCrUrGrGrUrGrUrCrUrArGrGrArGrArUrArCrAdT*dT)
Mean percent remaining mRNA transcript at siRNA concentration/in cell type 30 nM/HepG2: 94%

AD-9517: PCSK9 siRNA (sense rGrGrArGrGrUrGrUrArUrCrUrCrCrUrArGrArCdT*dT; antisense rGrUrCrUrArGrGrArGrArUrArCrArCrCrUrCrCdT*dT)
Mean percent remaining mRNA transcript at siRNA concentration/in cell type 30 nM/HepG2: 36%

AD-9519: PCSK9 siRNA (sense rCrCrCrArGrCrCrArGrGrArUrUrCrCrGrCrGrCdT*dT; antisense rGrCrGrCrGrGrArArUrCrCrUrGrGrCrUrGrGrGdT*dT)
Mean percent remaining mRNA transcript at siRNA concentration/in cell type 30 nM/HepG2: 78%

AD-9521: PCSK9 siRNA (sense rCrUrCrCrUrArGrArCrArCrCrArGrCrArUrArCdT*dT; antisense rGrUrArUrGrCrUrGrGrUrGrUrCrUrArGrGrArGdT*dT)
Mean percent remaining mRNA transcript at siRNA concentration/in cell type 30 nM/HepG2: 50%

AD-9522: PCSK9 siRNA (sense rArArGrGrArGrCrArUrGrGrArArUrCrCrCrGrGdT*dT; antisense rCrCrGrGrGrArUrUrCrCrArUrGrCrUrCrCrUrUdT*dT)
Mean percent remaining mRNA transcript at siRNA concentration/in cell type 30 nM/HepG2: 59%

AD-9523: PCSK9 siRNA (sense rCrArGrCrCrArGrGrArUrUrCrCrGrCrGrCrGrCdT*dT; antisense rGrCrGrCrGrCrGrGrArArUrCrCrUrGrGrCrUrGdT*dT)
Mean percent remaining mRNA transcript at siRNA concentration/in cell type 30 nM/HepG2: 55%

AD-9524: PCSK9 siRNA (sense rGrCrUrGrGrUrGrCrUrArGrCrCrUrUrGrCrGrUdT*dT; antisense rArCrGrCrArArGrGrCrUrArGrCrArCrCrArGrCdT*dT)
pIC50: 10.15 | Mean percent remaining mRNA transcript at siRNA concentration/in cell type 3 nM/HepG2: 28% | Mean percent remaining mRNA transcript at siRNA concentration/in cell type 30 nM/HepG2: 23%

AD-9525: PCSK9 siRNA (sense rGrGrArGrUrUrUrArUrUrCrGrGrArArArArGrCdT*dT; antisense rGrCrUrUrUrUrCrCrGrArArUrArArArCrUrCrCdT*dT)
Mean percent remaining mRNA transcript at siRNA concentration/in cell type 30 nM/HepG2: 53%

AD-9526: PCSK9 siRNA (sense rUrCrCrCrArGrCrCrArGrGrArUrUrCrCrGrCrGdT*dT; antisense rCrGrCrGrGrArArUrCrCrUrGrGrCrUrGrGrGrAdT*dT)
Mean percent remaining mRNA transcript at siRNA concentration/in cell type 30 nM/HepG2: 89% | Mean percent remaining mRNA transcript at siRNA concentration/in cell type 100 nM/HepG2: 74%

AD-9527: PCSK9 siRNA (sense rGrCrCrArArCrCrCrGrCrUrCrCrArCrUrArCrCdT*dT; antisense rGrGrUrArGrUrGrGrArGrCrGrGrGrUrUrGrGrCdT*dT)
Mean percent remaining mRNA transcript at siRNA concentration/in cell type 30 nM/HepG2: 45%

AD-9528: PCSK9 siRNA (sense rCrGrGrUrArCrCrGrGrGrCrGrGrArUrGrArArUdT*dT; antisense rArUrUrCrArUrCrCrGrCrCrCrGrGrUrArCrCrGdT*dT)
Mean percent remaining mRNA transcript at siRNA concentration/in cell type 30 nM/HepG2: 113%

AD-9529: PCSK9 siRNA (sense rGrGrGrArUrArCrCrUrCrArCrCrArArGrArUrCdT*dT; antisense rGrArUrCrUrUrGrGrUrGrArGrGrUrArUrCrCrCdT*dT)
Mean percent remaining mRNA transcript at siRNA concentration/in cell type 30 nM/HepG2: 60%

AD-9530: PCSK9 siRNA (sense rArCrCrGrGrGrCrGrGrArUrGrArArUrArCrCrAdT*dT; antisense rUrGrGrUrArUrUrCrArUrCrCrGrCrCrCrGrGrUdT*dT)
Mean percent remaining mRNA transcript at siRNA concentration/in cell type 30 nM/HepG2: 75%

AD-9531: PCSK9 siRNA (sense rArArArUrCrGrArGrGrGrCrArGrGrGrUrCrArUdT*dT; antisense rArUrGrArCrCrCrUrGrCrCrCrUrCrGrArUrUrUdT*dT)
pIC50: 9.28 | Mean percent remaining mRNA transcript at siRNA concentration/in cell type 3 nM/HepG2: 32% | Mean percent remaining mRNA transcript at siRNA concentration/in cell type 30 nM/HepG2: 31%

AD-9532: PCSK9 siRNA (sense rCrCrGrGrGrCrCrCrArCrArArCrGrCrUrUrUrUdT*dT; antisense rArArArArGrCrGrUrUrGrUrGrGrGrCrCrCrGrGdT*dT)
Mean percent remaining mRNA transcript at siRNA concentration/in cell type 30 nM/HepG2: 100%

AD-9533: PCSK9 siRNA (sense rGrArCrCrArCrCrGrGrGrArArArUrCrGrArGrGdT*dT; antisense rCrCrUrCrGrArUrUrUrCrCrCrGrGrUrGrGrUrCdT*dT)
Mean percent remaining mRNA transcript at siRNA concentration/in cell type 30 nM/HepG2: 100%

AD-9535: PCSK9 siRNA (sense rGrArGrUrGrArCrCrArCrCrGrGrGrArArArUrCdT*dT; antisense rGrArUrUrUrCrCrCrGrGrUrGrGrUrCrArCrUrCdT*dT)
Mean percent remaining mRNA transcript at siRNA concentration/in cell type 30 nM/HepG2: 73% | Mean percent remaining mRNA transcript at siRNA concentration/in cell type 100 nM/HepG2: 48%

AD-9536: PCSK9 siRNA (sense rUrUrArUrUrCrGrGrArArArArGrCrCrArGrCrUdT*dT; antisense rArGrCrUrGrGrCrUrUrUrUrCrCrGrArArUrArAdT*dT)
Mean percent remaining mRNA transcript at siRNA concentration/in cell type 30 nM/HepG2: 157%

AD-9537: PCSK9 siRNA (sense rArCrGrGrUrArCrCrGrGrGrCrGrGrArUrGrArAdT*dT; antisense rUrUrCrArUrCrCrGrCrCrCrGrGrUrArCrCrGrUdT*dT)
Mean percent remaining mRNA transcript at siRNA concentration/in cell type 30 nM/HepG2: 145%

AD-9538: PCSK9 siRNA (sense rCrCrGrGrGrCrGrGrArUrGrArArUrArCrCrArGdT*dT; antisense rCrUrGrGrUrArUrUrCrArUrCrCrGrCrCrCrGrGdT*dT)
Mean percent remaining mRNA transcript at siRNA concentration/in cell type 30 nM/HepG2: 80% | Mean percent remaining mRNA transcript at siRNA concentration/in cell type 100 nM/HepG2: 79%

AD-9539: PCSK9 siRNA (sense rGrGrUrGrGrArGrGrUrGrUrArUrCrUrCrCrUrAdT*dT; antisense rUrArGrGrArGrArUrArCrArCrCrUrCrCrArCrCdT*dT)
Mean percent remaining mRNA transcript at siRNA concentration/in cell type 30 nM/HepG2: 63% | Mean percent remaining mRNA transcript at siRNA concentration/in cell type 100 nM/HepG2: 56%

AD-9540: PCSK9 siRNA (sense rArGrArGrUrGrArCrCrArCrCrGrGrGrArArArUdT*dT; antisense rArUrUrUrCrCrCrGrGrUrGrGrUrCrArCrUrCrUdT*dT)
Mean percent remaining mRNA transcript at siRNA concentration/in cell type 30 nM/HepG2: 45%

AD-9541: PCSK9 siRNA (sense rGrGrUrGrArGrGrGrUrGrUrCrUrArCrGrCrCrAdT*dT; antisense rUrGrGrCrGrUrArGrArCrArCrCrCrUrCrArCrCdT*dT)
Mean percent remaining mRNA transcript at siRNA concentration/in cell type 30 nM/HepG2: 43%

AD-9542: PCSK9 siRNA (sense rArUrCrGrArGrGrGrCrArGrGrGrUrCrArUrGrGdT*dT; antisense rCrCrArUrGrArCrCrCrUrGrCrCrCrUrCrGrArUdT*dT)
Mean percent remaining mRNA transcript at siRNA concentration/in cell type 30 nM/HepG2: 160%
